The values that follow come from PubChem BioAssay (NCI).

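Each compound was tested at five concentrations against cells in 96-well plates for 48 hours. Abbreviation: GI50, concentration required for 50% inhibition of growth. TGI: total growth inhibition.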

The subject of one assay is HS 578T breast. The assay can be described thus: growth of human tumour cells (NCI), 48 h.
The test system of a further assay is PC-3 prostate. The assay can be described thus: growth of human tumour cells (NCI), 48 h.

Take `Nc1nc(Cl)cc2c1ncn2C1OC(CO)C(O)C1O` (stereo not drawn): the GI50 in the assay with HS 578T breast and in the assay with PC-3 prostate was above 100 µM each time. Besides, the TGI in the assay on HS 578T breast and with PC-3 prostate was above 100 µM in each case.

As to `COC(=O)c1ccc2c(c1)[n+](=O)c(C(C)=O)c(C(F)(F)F)n2[O-]`, the GI50 with HS 578T breast is 2.37 µM; with PC-3 prostate it was 1.64 µM. Besides, the values for the TGI in the assay with HS 578T breast and in the assay on PC-3 prostate were 5.84 µM and 3.63 µM, respectively.

`COC(=O)C(=O)C(C(=O)C(=O)Nc1ccc(Cl)cc1Cl)c1nc2ccc(Cl)cc2[nH]c1=O` (stereo not drawn): the TGI with HS 578T breast and in the assay on PC-3 prostate was above 100 µM in each case.

For the compound `COc1cc(C2CC(c3ccc(C)cc3)=NN2C(C)=O)ccc1Oc1ccnc2cc(Cl)ccc12` (stereo not drawn), in the assay with HS 578T breast, the GI50 is 2.6 µM and the TGI is above 100 µM. Moreover, in the assay with PC-3 prostate, the GI50 was above 100 µM and the TGI was above 100 µM.

For `COc1ccc(OC)c(-c2cc(-c3ccc(Cl)cc3)nn2-c2ccc(S(N)(=O)=O)cc2)c1`, in the assay with HS 578T breast, the GI50 is 21.9 µM and the TGI worked out at 63.1 µM. Further, in the assay on PC-3 prostate, the GI50 is 3.62 µM and the TGI is 15.7 µM.

As to `O=C(CCCCCn1c2ccccc2c2c3c(c4c5ccccc5[nH]c4c21)C(=O)N(O)C3=O)N1CCOCC1`, in the assay with HS 578T breast, the GI50 is 2.78 µM and the TGI turned out to be 7.95 µM. Besides, in the assay on PC-3 prostate, the GI50 was 2.28 µM and the TGI stood at 6.22 µM.

For the compound `COc1ccc(CNCCN2C(=O)c3ccc4c5c(ccc(c35)C2=O)C(=O)N(CCNCc2ccc(OC)cc2)C4=O)cc1`, in the assay with HS 578T breast, the GI50 was 1.1 µM and the TGI was determined as 4.25 µM. Besides, in the assay on PC-3 prostate, the GI50 is 0.387 µM and the TGI amounted to 1.96 µM.

Consider `COc1cc(C2C3=C(COC3=O)N(CCO)c3cc4c(cc32)OCCO4)cc(OC)c1O` (stereo not drawn), for which the GI50 in the assay on HS 578T breast was 1.14 µM; with PC-3 prostate it was 2.17 µM. In addition, the TGI in the assay with HS 578T breast and with PC-3 prostate was above 50 µM each time.

As for `CCCCC#Cc1c(I)n(C2OC(CO[Si](C)(C)C(C)(C)C)C3OC(C)(C)OC32)c(=O)[nH]c1=O` (stereo not drawn), in the assay with HS 578T breast, the GI50 is 11.7 µM and the TGI was determined as 39.6 µM. For the same compound, in the assay with PC-3 prostate, the GI50 is 2.8 µM and the TGI came to 10.4 µM.

As to `C=CC[n+]1c(/C=C2\Sc3ccccc3N2C)sc(-c2ccccc2)c1-c1ccccc1`, in the assay with HS 578T breast, the GI50 is 0.374 µM and the TGI stood at 19.4 µM. For the same compound, in the assay on PC-3 prostate, the GI50 was 0.264 µM and the TGI came out at 1.34 µM.

Regarding `COC(=O)C1=C(O)C(C(=O)OC)[C@@]2(O)[C@@H](C(=O)OC)C(c3ccc(OC(=O)C(Cc4ccccc4)NC(C)=O)cc3)C[C@@H]1[C@@H]2C(=O)OC` (stereo partly drawn), in the assay with HS 578T breast, the GI50 is 20.4 µM and the TGI was 75.3 µM. For the same compound, in the assay with PC-3 prostate, the GI50 is 27.6 µM and the TGI was 91 µM.

As to `CC(=O)c1c[nH]c2ccc(-c3ccnc(Nc4ccc(NC(=O)c5cccc(F)c5)c(CN5CCOCC5)c4)n3)cc12`, the GI50 in the assay with HS 578T breast is 0.124 µM; with PC-3 prostate, 0.224 µM. The TGI stood at 1.02 µM in the assay with HS 578T breast and 2.96 µM in the assay on PC-3 prostate.

Consider `NS(=O)(=O)OC[C@H]1O[C@@H](n2cnc3c(N[C@H]4CCc5ccccc54)ncnc32)[C@H](O)[C@@H]1O`, for which the GI50 in the assay on HS 578T breast was 0.432 µM; with PC-3 prostate, 0.337 µM. The figures for the TGI in the assay on HS 578T breast and in the assay with PC-3 prostate were 6.93 µM and 2.14 µM, respectively.

Regarding `CN1CCN(c2nc(NCCNc3ccnc4cc(Cl)ccc34)c3ccccc3n2)CC1`, in the assay with HS 578T breast, the GI50 is 2.74 µM and the TGI was found to be 9.58 µM. Moreover, in the assay with PC-3 prostate, the GI50 was 2.07 µM and the TGI was determined as 14.3 µM.

As to `O=C1C=Cc2cc3ccccc3c3cccc1c23`, the GI50 in the assay with HS 578T breast was 4.09 µM; in the assay on PC-3 prostate, 3.47 µM. For the same compound, the TGI in the assay with HS 578T breast stood at 11.7 µM; in the assay with PC-3 prostate, 19.1 µM.

On to `N=C(N)c1ccc(-c2ccc(-c3ccco3)o2)cc1`, for which the GI50 in the assay with HS 578T breast is 4.82 µM; in the assay on PC-3 prostate, 4.05 µM. Also, the TGI in the assay on HS 578T breast turned out to be 24.2 µM; with PC-3 prostate, 17 µM.

`N#CC1=C(N)NC(=S)NC1c1ccc(-c2ccc(-c3nc4ccccc4s3)cc2)o1` (stereo not drawn): in the assay with HS 578T breast, the GI50 is above 50 µM and the TGI was above 50 µM. Moreover, in the assay on PC-3 prostate, the GI50 is 31.2 µM and the TGI is above 50 µM.

For `CC(C)=CCNc1ncnc2c1ncn2C1OC(COP(=O)(O)O)C(O)C1O` (stereo not drawn), in the assay on HS 578T breast, the GI50 is 2.67 µM and the TGI was 21.8 µM. Further, in the assay on PC-3 prostate, the GI50 is 2 µM and the TGI was found to be 8.22 µM.

Regarding `COC(=O)C1=C(O)C(C(=O)OC)[C@@]2(O)[C@@H](C(=O)OC)C(c3ccccc3C(F)(F)F)C[C@@H]1[C@@H]2C(=O)OC` (stereo partly drawn), in the assay on HS 578T breast, the GI50 is 3.87 µM and the TGI is above 100 µM. For the same compound, in the assay with PC-3 prostate, the GI50 is 6.02 µM and the TGI came out at 24.7 µM.

For the compound `COc1cc(Oc2cnc3cc(N)cc(N)c3n2)cc(OC)c1OC`, in the assay on HS 578T breast, the GI50 was 37.9 µM and the TGI is above 100 µM. In the assay on PC-3 prostate, the GI50 was 32.4 µM and the TGI is above 100 µM.
